Data set [1] has as its system bovine vascular smooth muscle cells (bVSMCs). The data set is classed as cell-based. Conditions: 7 days; for Cell viability of bVSMCs after seven days (MTT signal, relative to control): mean of three experiments. As for the experimental part: The toxicity of the identified compounds to bovine VSMCs was measured using the MTT assay, which measures the activity of dehydrogenase enzymes of live cells. This assay can pick up both cell death and proliferation.
Bovine VSMCs were seeded in 96 well plates and cultured in M199/20% FCS for 1 day. Then, the cells were incubated with inhibitor concentrations from 0.5 to 100 μM (in M199 medium+5% FBS). The cells were incubated with the inhibitors for 7 days; every 2-3 days the medium −/+inhibitors was exchanged. Then, the MTT assay was performed. The stock vehicle DMSO was tested at corresponding concentrations to the inhibitors at 0.1% DMSO or less.

The subject of data set [2] is human monocyte-macrophages (HMMs). As to the kind of experiment: MTT toxicity assay, HMMs, seven days (Example 3). The data set is classed as cell-based. Conditions: 7 days; for Cell viability by MTT, percent of control: mean of three experiments; for Toxicity to HMMs (in words): at a concentration of 100 μM. Background: Tetrazolium assays rely on reduction of a dye to a coloured formazan, in cell work by metabolically active cells.
Experimental: A similar set of toxicity experiments was performed with human monocyte-macrophages (HMMs).

The subject of data set [3] is bovine vascular smooth muscle cells (bVSMCs). As to the kind of experiment: o-Cresolphthalein Ca2+ assay, bVSMC GAD calcification model (Examples 4 and 5). Conditions: GAD-treated bVSMCs, 10 μM, 7 d. Type of data set: cell-based. How it is done:
(§1) For the bVSMCs a GAD medium (10 mM β-glycerophosphate/0.1 mM L-ascorbic acid-2-phosphate/10 nM dexamethasone) model was used to induce mineralization in bVSMCs. Accordingly, cells were seeded in tissue culture plates using M199/20% FCS culture medium and cultured overnight. The next day, cells were treated either with medium only (M199/5% FBS)+/−inhibitors, or with the GAD-medium (10 mM β-glycerophosphate/0.1 mM L-ascorbic acid-2-phosphate/[…] dexamethasone)+/−inhibitors.
Medium+/−inhibitors was exchanged every 2-3 days. […]
The o-Cresolphthalein assay is a spectrophotometric method for measuring Ca^2+-concentrations in cell/tissue lysates. Following the calcification experiments, cells are briefly washed to remove medium and 100 […]1 of 0.1 N HCl is added to each well to dissolve any mineral deposits. Then, the Ca^2+-concentration of the samples is measured spectrophotometrically (at 570 nm) in the o-cresolphthalein assay with the help of a CaCl2 standard curve in a concentration range of ˜0.02-270 µg Ca^2+/ml.
The commercial BioRad DC protein assay is based on the Lowry method, aka reaction of proteins with a copper-tartrate complex and subsequent reaction with Folin's reagent. Following the calcification experiment, cells are briefly washed to remove medium and 100 µl of solubilisation solution (0.1 M NaOH/1% SDS/DIW) is added to each well to lyse the cells. The protein concentrations of the lysates are subsequently determined in the BioRad DC assay as per supplier's instructions using BSA (bovine serum albumin) as standard.
The in vitro model is the same as the model used in example 4; bovine vascular smooth muscle cells (bVSMCs) cultured so that they produce extracellular matrix, with the addition of the GAD medium (10 mM β-glycerophosphate/0.1 mM L-ascorbic acid-2-phosphate/10 nM dexamethasone).
As above, cells were treated either with medium only (“no-additions”; NA)+/−inhibitors, or with the GAD-medium+/−inhibitors. The inhibitors used were PJ34 and minocyclin (MC) at 10 μM, 1 μM and 0.1 μM.
The methodology was the same as that described in example 4.

The test system of data set [4] is human vascular smooth muscle cells (hVSMCs). As to the kind of experiment: o-Cresolphthalein Ca2+ assay, hVSMC Ca/P calcification model (Examples 7-9). The data set is classed as cell-based. Conditions: for Inhibition of calcification, normalised results (FIG. 27): concentrations between 0.05 μM and 3 μM. How it is done:
Primary hVSMCs were cultured in M199 media containing FBS (M199/5% FBS). They were plated at a known cell density, allowed to grow for 24 hours and then treated with control (DMSO only) or calcification media (DMSO containing 2.7 mM Calcium+2.5 mM phosphate)+/−inhibitors. After 6 days, calcification was assessed using the o-Cresolphthalein assay for quantification of Ca^2+ deposition and a BioRad protein assay for protein content.
Medium+/−inhibitors was exchanged every 2-3 days.
Primary hVSMCs were cultured in M199 media containing FBS (M199/5% FBS). They were plated at a known cell density, allowed to grow for 24 hours and then treated with control (DMSO only) or calcification media (DMSO containing 2.7 mM Calcium+2.5 mM phosphate)+/−inhibitors. After 8 days, calcification was assessed using o-Cresolphthalein assay for quantification of Ca^2+ deposition and a BioRad protein assay for protein content.
All of the compounds tested were used at a concentration of 3 μM. Medium+/−inhibitors was exchanged every 2-3 days.
Primary hVSMCs were cultured in M199 media containing FBS (M199/5% FBS). They were plated at a known cell density, allowed to grow for 24 hours and then treated with control (DMSO only) or calcification media (DMSO containing 2.7 mM Calcium+2.5 mM phosphate)+/−compounds. After 8 days, calcification was assessed using o-Cresolphthalein assay for quantification of Ca^2+ deposition and a BioRad protein assay for protein content.
These concentrations were chosen to mimic the systemic concentrations of these drugs following patient dosing according to the dose schedule in the prescribing information for each drug. Medium+/−inhibitors was exchanged every 2-3 days.

In data set [5] the test system is bovine vascular smooth muscle cells (bVSMCs). As to the kind of experiment: Alizarin Red S staining, bVSMC GAD calcification model (Example 4). Conditions: GAD-treated bVSMCs, 10 μM, 7 d, versus no inhibitor. Type of data set: cell-based. As for the experimental part: as §1
Medium+/−inhibitors was exchanged every 2-3 days. Bovine VSMCs were incubated for 7 d prior to assessment.
The Alizarin Red S staining is a visual/histological stain for tissue calcium deposits. Cells are briefly fixed in 4% paraformaldehyde/PIPES buffer pH 7.2 and subsequently stained for 5 min with Alizarin Red S (2% Alizarin Red S/DIW pH 4.2). Excess stain is removed by washing in DIW. Calcium mineral deposits are stained a bright orange red.

Data set [6] relates to PARP produced by a mammalian cell. Conditions: have been shown; cited from earlier work.
Where [7] appears, read: hVSMCs, 6 days, PJ34 10 μM, minocycline and cilostazol 0.5, 1 and 2 μM.
Setting [8] is: at the concentrations tested (0.5 to 100 μM).

Where two headings read alike, the source gives them in different places. Marks after values point to notes of the source that are not given here.

On to `O=C1CCc2cc(OCCCCc3nnnn3C3CCCCC3)ccc2N1` [cilostazol], for which the “Cell viability of bVSMCs after seven days (MTT signal, relative to control)” value in data set [1] (0.5 uM) was 98.22; in data set [1] (1 uM), 93.93; in data set [1] (2 uM) it was 86.31*; in data set [1] (5 uM), 86.87*; in data set [1] (10 uM) it was 88.38*; in data set [1] (20 uM), 90.45*. Further, the “Cell viability of bVSMCs after seven days (MTT signal, relative to control)” value in data set [1] (50 uM) is 84.93*; in data set [1] (100 uM) it was 65.21*. The “Toxicity to bVSMCs (MTT assay, in words)” value in data set [1] (at 50 and 100 μM) is “toxic”. Moreover, the “Cell viability by MTT, percent of control” value in data set [2] (0.5 uM) came out at 105.05; in data set [2] (1 uM), 103.62; in data set [2] (2 uM) it was 75.63; in data set [2] (5 uM), 90.74; in data set [2] (10 uM) it was 79.83; in data set [2] (20 uM), 81.50. Further, the “Cell viability by MTT, percent of control” value in data set [2] (50 uM) was 73.73; in data set [2] (100 uM), 77.06. For the same compound, in data set [2], the “Toxicity to HMMs (in words)” value is on record as “relatively innocuous”. In addition, in data set [3], the “Calcium levels (mass of calcium, FIG. 7B) compared to no inhibitors” value (from here on “Calcium levels … compared to no inhibitors”) is “no effect”. The “Normalised calcium levels (mass of calcium per mass of protein, FIG. 9B)” value in data set [3] is reported as “does not appear to have an effect”. Moreover, the “Extracellular matrix calcification (summary statement)” value in data set [4] (bovine cell and human cell in vitro vascular calcification model) is reported as “significantly reduce extracellular matrix calcification”. The “Calcium levels (mass of calcium, FIG. 17) versus DMSO Ca+P positive control” value in data set [4] (setting [7]) is listed as “reduce the calcium levels”. Moreover, the “Normalised calcium levels (mass of calcium per mass of protein, FIG. 19)” value in data set [4] (setting [7]) is on record as “lower calcium levels significantly”. Moreover, in data set [4] (hVSMCs, 8 days, 3 μM), the “Normalised calcium levels (mass of calcium per mass of protein, FIG. 22)” value is reported as “particularly effective”. Also, in data set [4] (hVSMCs, 8 days), the “Inhibition of calcification, normalised results (FIG. 27)” value is “inhibit calcification significantly and repeatedly”.

Take `OCCN(CCO)c1nc(N2CCCCC2)c2nc(N(CCO)CCO)nc(N3CCCCC3)c2n1` [Dipyridamol, dipyridamol]: the “Toxicity to bVSMCs (MTT assay, in words)” value in data set [1] (at 50 and 100 μM) is “toxic”. Further, the “Degree of mineralization judged by eye (Alizarin Red S, FIG. 6)” value in data set [5] was “slightly worse”. In data set [3], the “Calcium levels … compared to no inhibitors” value is reported as “elevate calcium levels” and the “Normalised calcium levels (mass of calcium per mass of protein, FIG. 9B)” value is on record as “elevate calcium levels”.

Consider `CC(=O)CCCCn1c(=O)c2c(ncn2C)n(C)c1=O` [Pentoxifylline, pentoxifylline], for which the “Cell viability of bVSMCs after seven days (MTT signal, relative to control)” value is listed as 97.68 in data set [1] (0.5 uM); 95.91 in data set [1] (1 uM); 92.19* in data set [1] (2 uM); 91.33* in data set [1] (5 uM); 91.77* in data set [1] (10 uM); 92.43* in data set [1] (20 uM). In addition, the “Cell viability of bVSMCs after seven days (MTT signal, relative to control)” value is on record as 93.01* in data set [1] (50 uM) and 96.96 in data set [1] (100 uM). Moreover, in data set [1] (setting [8]), the “Toxicity to bVSMCs (MTT assay, in words)” value was “virtually non-toxic”. Moreover, the “Cell viability by MTT, percent of control” value in data set [2] (0.5 uM) is on record as 98.73; in data set [2] (1 uM), 90.57; in data set [2] (2 uM) it was 91.92; in data set [2] (5 uM), 107.27; in data set [2] (10 uM), 88.35; in data set [2] (20 uM), 93.54. For the same compound, the results for the “Cell viability by MTT, percent of control” value in data set [2] (50 uM) and in data set [2] (100 uM) were 89.28 and 89.64, respectively. In data set [2], the “Toxicity to HMMs (in words)” value is reported as “relatively innocuous”. The “Calcium levels … compared to no inhibitors” value in data set [3] is “no effect”. Further, in data set [3], the “Normalised calcium levels (mass of calcium per mass of protein, FIG. 9B)” value is listed as “slightly lower calcium levels”. Moreover, the “Inhibition of calcification, normalised results (FIG. 27)” value in data set [4] (hVSMCs, 8 days) was “do not inhibit calcification”.

`NC(=O)c1cccc(N)c1` [3-AB, 3-aminobenzamide]: the “Cell viability of bVSMCs after seven days (MTT signal, relative to control)” value in data set [1] (0.5 uM) is reported as 95.77; in data set [1] (1 uM), 99.58; in data set [1] (2 uM) it was 94.53; in data set [1] (5 uM) it was 93.35*; in data set [1] (10 uM) it was 91.99*; in data set [1] (20 uM) it was 93.42*. The “Cell viability of bVSMCs after seven days (MTT signal, relative to control)” value is 94.64 in data set [1] (50 uM) and 92.48* in data set [1] (100 uM). For the same compound, in data set [1] (setting [8]), the “Toxicity to bVSMCs (MTT assay, in words)” value is listed as “virtually non-toxic”. In addition, the “Cell viability by MTT, percent of control” value was 115.25 in data set [2] (0.5 uM); 80.78 in data set [2] (1 uM); 88.03 in data set [2] (2 uM); 93.51 in data set [2] (5 uM); 97.34 in data set [2] (10 uM); 85.76 in data set [2] (20 uM). Moreover, the “Cell viability by MTT, percent of control” value amounted to 95.92 in data set [2] (50 uM) and 104.20 in data set [2] (100 uM). The “Toxicity to HMMs (in words)” value in data set [2] is given as “relatively innocuous”. Further, in data set [3], the “Calcium levels … compared to no inhibitors” value is on record as “no effect”. Also, in data set [3], the “Normalised calcium levels (mass of calcium per mass of protein, FIG. 9B)” value was “slightly lower calcium levels”. The “Inhibition of PARP produced by a mammalian cell” value in data set [6] was “inhibit PARP”.

(Values after patent US10159685B2, “Vascular calcification” (Cambridge Enterprise Limited, priority 2016, dated 2018).)
